This passage reports IC50 results from patent US9145415B2, “Nitrogen-containing heterocyclic compound or salt thereof” (FUJIFILM Corporation, priority 2012, dated 2015).

Experiment [1] has as its target T1, human FLT3 protein (FLT3 (WT)) (Homo sapiens, UniProt P36888).
T1 construct: human FLT3 protein (intracellular region, 564 to 993 aa); GST; purchased Carna Biosciences; host or cells: baculovirus expression system
T1 sequence (P36888 564-993): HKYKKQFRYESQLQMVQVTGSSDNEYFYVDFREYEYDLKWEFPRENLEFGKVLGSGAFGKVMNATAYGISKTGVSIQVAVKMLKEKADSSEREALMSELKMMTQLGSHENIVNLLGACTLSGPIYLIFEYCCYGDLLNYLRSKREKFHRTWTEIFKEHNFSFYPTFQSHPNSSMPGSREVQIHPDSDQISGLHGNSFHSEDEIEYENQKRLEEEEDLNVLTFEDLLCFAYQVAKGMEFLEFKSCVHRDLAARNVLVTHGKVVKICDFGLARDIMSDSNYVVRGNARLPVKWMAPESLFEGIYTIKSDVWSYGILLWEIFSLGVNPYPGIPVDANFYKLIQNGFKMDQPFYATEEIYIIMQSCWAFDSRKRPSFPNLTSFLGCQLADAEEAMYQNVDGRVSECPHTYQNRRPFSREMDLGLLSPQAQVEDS
Kind of experiment: FLT3 inhibition test (FLT3 enzyme inhibition, time-resolved fluorescence of substrate peptide phosphorylation). It counts as biochemical. Particulars: read-out: FLT3 (WT) enzyme inhibition activity. An outline of the steps: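 Wild-type human FLT3 (1.2 μg) pre-incubated with compound 15 min at 25° C in 100 mM HEPES pH 7.5, 10 mM MgCl2, 25 mM NaCl, 1 mM DTT. Reaction started with substrate peptide and ATP (final 50 μM), run 30 min at 25° C; phosphorylation read by time-resolved fluorescence.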

The test system of experiment [2] is MV4-11 cells. Description: Leukemia cell proliferation inhibition test (ATPlite), MV4-11. It counts as cell-based. Particulars: Homo sapiens, read-out: MV4-11 cell proliferation inhibition effect. An outline of the steps: (§1)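 Luminescent ATP read-out (firefly luciferase) used as a total cell count after 72 h compound exposure at 37° C, 5% CO2. Cells: 10,000/well in RPMI + 10% FBS. GI50 = 50% inhibition relative to 0.1% DMSO, from a sigmoid dose-response fit; duplicates.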

The subject of experiment [3] is Molm-13 cells. Description: Leukemia cell proliferation inhibition test (ATPlite), Molm-13. It counts as cell-based. Particulars: Homo sapiens, read-out: MOLM13 cell proliferation inhibition effect. An outline of the steps:
as §1

The mark [4] stands for this setting: GST-fused human FLT3 (564 to 993 aa), ATP 50 μM.
Setting [5] is: MV4-11, 72 h, MV4-11, 72 hours culture, ATPlite, GI50 per method.
Setting [6] is: MOLM-13, 72 h, Molm-13, 72 hours culture, ATPlite, GI50 per method.

Where two headings read alike, the source gives them in different places.

Consider `CCCNc1nc(Nc2cccc3c2cnn3C)ncc1C#CCCCNC(=O)[C@H](C)N(C)C(=O)/C=C/CN(C)C` [Compound 21-5], for which the IC50 is 0.1 to 1 µM in experiment [1] (setting [4]), greater than 1 µM in experiment [2] (setting [5]) and 0.1 to 1 µM in experiment [3] (setting [6]).

Consider `CNc1nc(Nc2ccc(OC)c(F)c2)ncc1C#C[C@@H]1CCC[C@H](NC(=O)[C@H](C)N(C)C(=O)/C=C/CN(C)C)C1` [Compound 21-32, (E)-4-(Dimethylamino)-N—((S)-1-(((1S,3R)-3-((2-((3-fluoro-4-methoxyphenyl)amino)-4-(methylamino)pyrimidin-5-yl)ethynyl)cyclohexyl)amino)-1-oxopropan-2-yl)-N-methyl-2-butenamide], for which the IC50 was less than 0.01 µM in experiment [1] (FLT3 (WT)); less than 0.01 µM in experiment [2] (MV4-11, MV4-11 cell); less than 0.01 µM in experiment [3] (MOLM-13, MOLM13 cell).

Take `COc1nc(Nc2cccc(F)c2)ncc1C#C[C@@H]1CCC[C@H](NC(=O)[C@H](C)N(C)C(=O)/C=C/CN(C)C)C1` [Compound 15-4]: the IC50 in experiment [1] (setting [4]), in experiment [2] (setting [5]) and in experiment [3] (setting [6]) was less than 0.01 µM in each case.

`CCCNc1nc(Nc2ccnc(OC)c2)ncc1C#CCCCNC(=O)[C@@H]1CCCN1C(=O)/C=C/CN(C)C` [Compound 9-35, (S,E)-1-(4-(Dimethylamino)-2-butenoyl)-N-(5-(2-((2-methoxypyridin-4-yl)amino)-4-(propylamino)pyrimidin-5-yl)-4-pentyn-1-yl)pyrrolidine-2-carboxamide]: the IC50 in experiment [1] (setting [4]), in experiment [2] (setting [5]) and in experiment [3] (setting [6]) was less than 0.01 µM each time.

Turning to `CCCNc1nc(Nc2ccc3cnn(C)c3c2)ncc1C#CCCCNC(=O)[C@@H]1CCCN1C(=O)/C=C/CN(C)C` [Compound 22-32], the IC50 is less than 0.01 µM in experiment [1] (FLT3 (WT)); less than 0.01 µM in experiment [2] (MV4-11, MV4-11 cell); less than 0.01 µM in experiment [3] (MOLM-13, MOLM13 cell).

For `CCCNc1nc(Nc2ccccc2F)ncc1C#CCCCNC(=O)[C@H](C)N(C)C(=O)/C=C/CN(C)C` [Compound 12-10], the IC50 was less than 0.01 µM in experiment [1] (setting [4]), 0.01 to 0.1 µM in experiment [2] (setting [5]) and 0.1 to 1 µM in experiment [3] (setting [6]).

Consider `CCCNc1nc(Nc2ccc(F)nc2)ncc1C#CCCCNC(=O)[C@H](C)N(C)C(=O)/C=C/CN(C)C` [Compound 7-21, (S,E)-4-(Dimethylamino)-N-(1-((5-(2-((6-fluoropyridin-3-yl)amino)-4-(propylamino)pyrimidin-5-yl)-4-pentyn-1-yl)amino)-1-oxopropan-2-yl)-N-methyl-2-butenamide], for which the IC50 in experiment [1] (setting [4]), in experiment [2] (setting [5]) and in experiment [3] (setting [6]) was less than 0.01 µM throughout.

In the case of `CCCNc1nc(Nc2ccc(C#N)cc2)ncc1C#CCCCNC(=O)[C@H](CO)N(C)C(=O)/C=C/CN(C)C` [Compound 7-62, (S,E)-N-(1-((5-(2-((4-Cyanophenyl)amino)-4-(propylamino)pyrimidin-5-yl)-4-pentyn-1-yl)amino)-3-hydroxy-1-oxopropan-2-yl)-4-(dimethylamino)-N-methyl-2-butenamide], the IC50 in experiment [1] (setting [4]), in experiment [2] (setting [5]) and in experiment [3] (setting [6]) was less than 0.01 µM in each case.

Turning to `CCCNc1nc(Nc2ccc(C)nc2)ncc1C#CCCCNC(=O)[C@H](C)N(C)C(=O)/C=C/CN(C)C` [Compound 21-17], the figures for the IC50 in experiment [1] (setting [4]), in experiment [2] (setting [5]) and in experiment [3] (setting [6]) were less than 0.01 µM, less than 0.01 µM and 0.01 to 0.1 µM, respectively.

`CNc1nc(Nc2ccc(F)cc2)ncc1C#CCCCNC(=O)CN(C)C(=O)/C=C/CN(C)C` [Compound 7-89]: the IC50 in experiment [1] (setting [4]), in experiment [2] (setting [5]) and in experiment [3] (setting [6]) was less than 0.01 µM in each case.

For the compound `CCCNc1nc(Nc2ccc(C#N)cc2)ncc1C#C[C@H]1C[C@@H](NC(=O)[C@H](C)N(C)C(=O)/C=C/CN(C)C)C1` [Compound 13-9], the IC50 in experiment [1] (setting [4]), in experiment [2] (setting [5]) and in experiment [3] (setting [6]) was less than 0.01 µM throughout.

With `C/C=C/C(=O)N(C)[C@@H](C)C(=O)Nc1cccc(NC(=O)c2cnc(Nc3ccc(C(N)=O)cc3)nc2NCCC)c1` [Compound 3-9], the figures for the IC50 in experiment [1] (setting [4]), in experiment [2] (setting [5]) and in experiment [3] (setting [6]) were less than 0.01 µM, 0.01 to 0.1 µM and 0.01 to 0.1 µM, respectively.

With `CCCNc1nc(Nc2ccc(C(N)=O)cc2)ncc1-c1ccc(CNC(=O)CNC(=O)/C=C/CN(C)C)cc1` [Compound 16-2], the IC50 in experiment [1] (setting [4]) is less than 0.01 µM; in experiment [2] (setting [5]) it was 0.01 to 0.1 µM; in experiment [3] (setting [6]) it was 0.1 to 1 µM.

On to `CCCNc1nc(Nc2ccc(C(N)=O)cc2)ncc1C(=O)Nc1cccc(N2CCN(C(=O)/C=C/CN(C)C)CC2)c1` [Compound 3-31], for which the IC50 was less than 0.01 µM in experiment [1] (setting [4]), 0.1 to 1 µM in experiment [2] (setting [5]) and 0.1 to 1 µM in experiment [3] (setting [6]).

On to `CCCNc1nc(Nc2cccc(F)c2)ncc1C#CCCCNC(=O)[C@@H]1C[C@@H](F)CN1C(=O)/C=C/CN(C)C` [Compound 7-47], for which the IC50 in experiment [1] (setting [4]), in experiment [2] (setting [5]) and in experiment [3] (setting [6]) was less than 0.01 µM in each case.

Turning to `CCCNc1nc(Nc2cccc(F)c2)ncc1C#CCCCNC(=O)[C@@H]1C[C@@H](OC)CN1C(=O)/C=C/CN(C)C` [Compound 7-58], the IC50 in experiment [1] (setting [4]), in experiment [2] (setting [5]) and in experiment [3] (setting [6]) was less than 0.01 µM in each case.

Regarding `CCCNc1nc(Nc2cccc(F)c2)ncc1C#CCCCNC(=O)[C@@H]1C[C@H](O)CN1C(=O)/C=C/CN(C)C` [Compound 7-67], the IC50 in experiment [1] (setting [4]), in experiment [2] (setting [5]) and in experiment [3] (setting [6]) was less than 0.01 µM throughout.

In the case of `CCCNc1nc(Nc2ccc(F)cc2)ncc1C#CCCCNC(=O)CN(C)C(=O)/C=C/CN(C)C` [Compound 7-8, (E)-4-(Dimethylamino)-N-(2-((5-(2-((4-fluorophenyl)amino)-4-(propylamino)pyrimidin-5-yl)-4-pentyn-1-yl)amino)-2-oxoethyl)-N-methyl-2-butenamide], the IC50 in experiment [1] (setting [4]), in experiment [2] (setting [5]) and in experiment [3] (setting [6]) was less than 0.01 µM each time.

On to `C[C@@H](C(=O)NCCCC#Cc1cnc(Nc2ccc(C#N)cc2)nc1N1CCCC1)N(C)C(=O)/C=C/CN(C)C` [Compound 9-1, (S,E)-N-(1-((5-(2-((4-cyanophenyl)amino)-4-(pyrrolidin-1-yl)pyrimidin-5-yl)-4-pentyn-1-yl)amino)-1-oxopropan-2-yl)-4-(dimethylamino)-N-methyl-2-butenamide], for which the IC50 in experiment [1] (setting [4]), in experiment [2] (setting [5]) and in experiment [3] (setting [6]) was less than 0.01 µM each time.

Take `CCCNc1nc(Nc2ccc(C(N)=O)cc2)ncc1C(=O)Nc1cccc(NC(=O)[C@H](C)N(C)C(=O)/C=C/CN2CC(O)C2)c1` [Compound 4-5]: the IC50 in experiment [1] (setting [4]), in experiment [2] (setting [5]) and in experiment [3] (setting [6]) was less than 0.01 µM in each case.

In the case of `CCCNc1nc(Nc2cccc(F)c2)ncc1C#CCCCNC(=O)[C@H](CC(C)C)N(C)C(=O)/C=C/CN(C)C` [Compound 7-11], the IC50 in experiment [1] (setting [4]) was less than 0.01 µM; in experiment [2] (setting [5]), 0.01 to 0.1 µM; in experiment [3] (setting [6]) it was 0.01 to 0.1 µM.

As for `CCCNc1nc(Nc2ccc(C#N)cc2)ncc1C#CCCCNC(=O)[C@@H]1C[C@@H](OC)CN1C(=O)/C=C/CN(C)C` [Compound 7-60], the IC50 in experiment [1] (setting [4]), in experiment [2] (setting [5]) and in experiment [3] (setting [6]) was less than 0.01 µM in each case.

On to `COCCNc1nc(Nc2cccc(F)c2)ncc1C#C[C@@H]1CCC[C@H](NC(=O)[C@H](C)N(C)C(=O)/C=C/CN(C)C)C1` [Compound 22-36], for which the IC50 in experiment [1] (FLT3 (WT)) is less than 0.01 µM; in experiment [2] (MV4-11, MV4-11 cell), less than 0.01 µM; in experiment [3] (MOLM-13, MOLM13 cell) it was less than 0.01 µM.

With `CCCNc1nc(NCCc2ccncc2)ncc1C(=O)NCCC(CC)NC(=O)CNC(=O)/C=C/CN(C)C` (stereo not drawn) [Compound 1-11], the IC50 in experiment [1] (setting [4]) was less than 0.01 µM; in experiment [2] (setting [5]), 0.01 to 0.1 µM; in experiment [3] (setting [6]), 0.01 to 0.1 µM.

For `CNc1nc(Nc2ccc(OC)c(F)c2)ncc1C#C[C@H]1C[C@@H](NC(=O)[C@H](C)N(C)C(=O)/C=C/CN(C)C)C1` [Compound 13-16, (E)-4-(Dimethylamino)-N—((S)-1-(((1S,3R)-3-((2-((3-fluoro-4-methoxyphenyl)amino)-4-(methylamino)pyrimidin-5-yl)ethynyl)cyclobutyl)amino)-1-oxopropan-2-yl)-N-methyl-2-butenamide], the IC50 in experiment [1] (setting [4]), in experiment [2] (setting [5]) and in experiment [3] (setting [6]) was less than 0.01 µM throughout.

For the compound `COc1ccc(Nc2ncc(C#CCCCNC(=O)[C@H](C)N(C)C(=O)/C=C/CN(C)C)c(NC3CC3)n2)cc1F` [Compound 7-42, (S,E)-N-(1-((5-(4-(Cyclopropylamino)-2-((3-fluoro-4-methoxyphenyl)amino)pyrimidin-5-yl)-4-pentyn-1-yl)amino)-1-oxopropan-2-yl)-4-(dimethylamino)-N-methyl-2-butenamide], the IC50 in experiment [1] (setting [4]), in experiment [2] (setting [5]) and in experiment [3] (setting [6]) was less than 0.01 µM throughout.
